Molecular target: Pol theta (1-899) (Homo sapiens (Human), UniProt O75417)
Experiment: Pol theta ATPase activity, NADH oxidation-coupled enzymatic assay
Type: biochemical
Details: Pol theta (1-899) 10 nM, ATP, dT50 ssDNA, absorbance 340 nm, 10-point dilution series; read-out: ATPase NADH coupling:Standard Screening:hPolQ IC50
Method in brief: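 Pol theta (1-899), 10 nM, preincubated 15 min at RT with 10-point compound series in Tris pH 7.80/KCl/MgCl2 buffer, then given 100 μM ATP plus 300 nM dT50 ssDNA with PK/LDH-coupled NADH oxidation. A340 followed for 30 min; rate slopes fitted with a four-parameter model for IC50.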

Chain of Pol theta (1-899) (O75417 1-899): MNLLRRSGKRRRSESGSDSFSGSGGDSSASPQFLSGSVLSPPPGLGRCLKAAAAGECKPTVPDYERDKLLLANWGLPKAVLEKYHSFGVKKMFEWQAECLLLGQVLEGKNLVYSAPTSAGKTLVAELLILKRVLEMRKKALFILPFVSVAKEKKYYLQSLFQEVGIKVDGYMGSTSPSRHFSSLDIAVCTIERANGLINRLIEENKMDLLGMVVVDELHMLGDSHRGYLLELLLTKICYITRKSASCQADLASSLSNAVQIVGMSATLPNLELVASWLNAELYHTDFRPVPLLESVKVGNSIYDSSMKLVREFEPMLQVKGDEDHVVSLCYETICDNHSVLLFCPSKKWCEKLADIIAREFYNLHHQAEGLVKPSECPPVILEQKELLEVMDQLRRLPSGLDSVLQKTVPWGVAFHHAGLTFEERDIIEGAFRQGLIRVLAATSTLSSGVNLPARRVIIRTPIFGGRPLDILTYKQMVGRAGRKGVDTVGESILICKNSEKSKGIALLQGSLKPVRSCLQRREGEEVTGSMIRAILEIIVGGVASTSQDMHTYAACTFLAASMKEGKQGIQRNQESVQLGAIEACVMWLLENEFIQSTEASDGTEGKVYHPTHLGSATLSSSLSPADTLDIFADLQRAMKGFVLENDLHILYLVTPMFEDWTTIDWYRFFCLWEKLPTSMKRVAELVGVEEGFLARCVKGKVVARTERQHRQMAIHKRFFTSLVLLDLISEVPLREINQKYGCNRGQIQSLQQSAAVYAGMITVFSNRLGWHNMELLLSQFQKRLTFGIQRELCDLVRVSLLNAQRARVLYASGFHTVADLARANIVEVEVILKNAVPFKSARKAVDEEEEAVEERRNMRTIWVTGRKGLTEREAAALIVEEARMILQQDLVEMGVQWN

| IC50 [nM] | SMILES |
| --- | --- |
| ≤ 200 | COc1ccccc1-c1cnccc1C(=O)Nc1nnc(OCc2ccc(Cl)cc2)s1 [Example 95, N-(5-((4-chlorobenzyl)oxy)-1,3,4-thiadiazol-2-yl)-3-(2-methoxyphenyl)isonicotinamide] |
| ≤ 200 | COc1cc(-c2ccccc2OC)c(C(=O)Nc2nnc(OCc3ccc(Cl)cn3)s2)cn1 [Example 222, N-(5-((5-chloropyridin-2-yl)methoxy)-1,3,4-thiadiazol-2-yl)-6-methoxy-4-(2-methoxyphenyl)nicotinamide] |
| ≤ 200 | COc1ccccc1-c1cc(C2CC2)ncc1C(=O)Nc1nnc(OCc2ccc(Cl)cn2)s1 [Example 216, N-[5-[(5-chloropyridin-2-yl)methoxy]-1,3,4-thiadiazol-2-yl]-6-cyclopropyl-4-(2-methoxyphenyl)pyridine-3-carboxamide] |
| ≤ 200 | COc1cccc(F)c1-c1cc(C#N)ncc1C(=O)Nc1nnc(OCc2ccc(Cl)cn2)s1 [Example 186, N-(5-((5-chloropyridin-2-yl)methoxy)-1,3,4-thiadiazol-2-yl)-6-cyano-4-(2-fluoro-6-methoxyphenyl)nicotinamide] |
| ≤ 200 | COc1ccccc1-c1cnncc1C(=O)Nc1nnc(OCc2ccc(Cl)cn2)s1 [Example 106, N-(5-((5-chloropyridin-2-yl)methoxy)-1,3,4-thiadiazol-2-yl)-5-(2-methoxyphenyl)pyridazine-4-carboxamide] |
| 1000 to 10000 | O=C(Nc1nnc(OCc2ccc(C3COC3)cc2)s1)c1cccnc1N1CCOCC1 [Example 56, 2-morpholino-N-(5-((4-(oxetan-3-yl)benzyl)oxy)-1,3,4-thiadiazol-2-yl)nicotinamide] |
| ≤ 200 | Cc1cc(-c2cccc3c2OC(F)(F)O3)c(C(=O)Nc2nnc(OCc3ccc(Cl)cn3)s2)cn1 [Example 208, N-(5-((5-chloropyridin-2-yl)methoxy)-1,3,4-thiadiazol-2-yl)-4-(2,2-difluorobenzo[d][1,3]dioxol-4-yl)-6-methylnicotinamide] |
| ≤ 200 | N#Cc1ccc(C(=O)Nc2nnc(OCc3ccc(Cl)cc3)s2)c(N2CCOC3(CC3)C2)n1 [Example 44, N-(5-((4-chlorobenzyl)oxy)-1,3,4-thiadiazol-2-yl)-6-cyano-2-(4-oxa-7-azaspiro[2.5]octan-7-yl)nicotinamide] |
| 1000 to 10000 | O=C(Nc1nnc(OCc2ccc(Cl)cc2)s1)c1cccnc1-c1ccccc1 [Example 94, N-(5-((4-chlorobenzyl)oxy)-1,3,4-thiadiazol-2-yl)-2-phenylnicotinamide] |
| ≤ 200 | Cc1cc(-c2ccccc2OC(F)F)c(C(=O)Nc2nnc(OCc3ccc(Cl)cc3)s2)cn1 [Example 114, N-[5-[(4-chlorophenyl)methoxy]-1,3,4-thiadiazol-2-yl]-4-[2-(difluoromethoxy)phenyl]-6-methylpyridine-3-carboxamide] |
| ≤ 200 | N#Cc1ccc(C(=O)Nc2nnc(OCc3ccc(Br)cc3)s2)c(N2CCOC3(CC3)C2)n1 [Example 85, N-(5-((4-bromobenzyl)oxy)-1,3,4-thiadiazol-2-yl)-6-cyano-2-(4-oxa-7-azaspiro[2.5]octan-7-yl)nicotinamide] |
| ≤ 200 | O=C(Nc1nnc(OCc2ccc(Cl)cc2)s1)c1ccncc1-c1ccccc1OC(F)F [Example 100, N-(5-((4-chlorobenzyl)oxy)-1,3,4-thiadiazol-2-yl)-3-(2-(difluoromethoxy)phenyl)isonicotinamide] |
| 200 to 500 | CC1CN(c2ncccc2C(=O)Nc2nnc(OCc3ccc(Cl)cc3)s2)CCO1 (racemic) [Example 7, (R)—N-(5-((4-chlorobenzyl)oxy)-1,3,4-thiadiazol-2-yl)-2-(2-methylmorpholino)nicotinamide and (S)—N-(5-((4-chlorobenzyl)oxy)-1,3,4-thiadiazol-2-yl)-2-(2-methylmorpholino)nicotinamide] |
| 1000 to 10000 | O=C(Nc1nnc(OCc2ccc(Br)cn2)s1)c1cccnc1N1CCOCC1 [Example 15] |
| ≤ 200 | O=C(Nc1nnc(OCc2ccc(Cl)cc2)s1)c1ccncc1-c1cccc2c1OCCN2 [Example 136, N-[5-[(4-chlorophenyl)methoxy]-1,3,4-thiadiazol-2-yl]-3-(3,4-dihydro-2H-1,4-benzoxazin-8-yl)pyridine-4-carboxamide] |
| 1000 to 10000 | CC(=O)Nc1cc(N2CCOCC2)c(C(=O)Nc2nnc(OCc3ccc(Cl)cc3)s2)cn1 [Example 78, 6-acetamido-N-(5-((4-chlorobenzyl)oxy)-1,3,4-thiadiazol-2-yl)-4-morpholinonicotinamide] |
| 500 to 1000 | O=C(Nc1nnc(OCc2ccc(Cl)cc2)s1)c1cncn1-c1ccncc1 [Example 18, N-(5-((4-chlorobenzyl)oxy)-1,3,4-thiadiazol-2-yl)-1-(pyridin-4-yl)-1H-imidazole-5-carboxamide] |
| 1000 to 10000 | O=C(Nc1nnc(OCc2ccc(Cl)cc2)s1)c1c[nH]c(=O)cc1N1CCOCC1 [Example 41, N-(5-((4-chlorobenzyl)oxy)-1,3,4-thiadiazol-2-yl)-4-morpholino-6-oxo-1,6-dihydropyridine-3-carboxamide or its tautomer N-(5-((4-chlorobenzyl)oxy)-1,3,4-thiadiazol-2-yl)-6-hydroxy-4-morpholinonicotinamide] |

| IC50 [nM] | SMILES |
| --- | --- |
| 1000 to 10000 | CN(C)C(=O)N1CCN(c2ncccc2C(=O)Nc2nnc(OCc3ccc(Cl)cc3)s2)CC1 [Example 28, 4-(3-((5-((4-chlorobenzyl)oxy)-1,3,4-thiadiazol-2-yl)carbamoyl)pyridin-2-yl)-N,N-dimethylpiperazine-1-carboxamide] |
| ≤ 200 | N#Cc1ccc(OC(F)F)c(-c2cnccc2C(=O)Nc2nnc(OCc3ccc(Cl)cc3)s2)c1 [Example 108, N-(5-((4-chlorobenzyl)oxy)-1,3,4-thiadiazol-2-yl)-3-(5-cyano-2-(difluoromethoxy)phenyl)isonicotinamide] |
| ≤ 200 | COc1ccccc1-c1cc(C#N)ncc1C(=O)Nc1nnc(OCc2ccc(Cl)cc2)s1 [Example 92, N-(5-((4-chlorobenzyl)oxy)-1,3,4-thiadiazol-2-yl)-6-cyano-4-(2-methoxyphenyl)nicotinamide] |
| ≤ 200 | C[C@@H]1COC[C@@H](C)N1c1cnccc1C(=O)Nc1nnc(OCc2ccc(Cl)cc2)s1 [Example 144, N-(5-((4-chlorobenzyl)oxy)-1,3,4-thiadiazol-2-yl)-3-((3R,5R)-3,5-dimethylmorpholino)isonicotinamide] |
| ≤ 200 | O=C(Nc1nnc(OCc2ccc(Cl)cn2)s1)c1cncn1-c1ccccc1OC(F)F [Example 168, N-[5-[(5-chloropyridin-2-yl)methoxy]-1,3,4-thiadiazol-2-yl]-3-[2-(difluoromethoxy)phenyl]imidazole-4-carboxamide] |
| 200 to 500 | Cc1cn[nH]c1-c1cnccc1C(=O)Nc1nnc(OCc2ccc(Cl)cc2)s1 [Example 118, N-(5-((4-chlorobenzyl)oxy)-1,3,4-thiadiazol-2-yl)-3-(4-methyl-1H-pyrazol-5-yl)isonicotinamide] |
| ≤ 200 | COc1ccccc1-c1cn2ccnc2cc1C(=O)Nc1nnc(OCc2ccc(Cl)cc2)s1 [Example 161, N-(5-((4-chlorobenzyl)oxy)-1,3,4-thiadiazol-2-yl)-6-(2-methoxyphenyl)imidazo[1,2-a]pyridine-7-carboxamide] |
| 500 to 1000 | COc1ccncc1-c1cnccc1C(=O)Nc1nnc(OCc2ccc(Cl)cc2)s1 [Example 133, N-(5-((4-chlorobenzyl)oxy)-1,3,4-thiadiazol-2-yl)-4′-methoxy-[3,3′-bipyridine]-4-carboxamide] |
| ≤ 200 | COc1ccccc1-c1cnccc1C(=O)Nc1nnc(OCc2ccccc2)s1 [Example 174, N-(5-(benzyloxy)-1,3,4-thiadiazol-2-yl)-3-(2-methoxyphenyl)isonicotinamide] |
| 500 to 1000 | O=C(Nc1nnc(OCc2ccc(Cl)cc2)s1)c1ccc(Br)nc1N1CCOCC1 [Example 58, 6-bromo-N-(5-((4-chlorobenzyl)oxy)-1,3,4-thiadiazol-2-yl)-2-morpholinonicotinamide] |
| ≤ 200 | COc1ccccc1-c1cc(C(=O)O)ncc1C(=O)Nc1nnc(OCc2ccc(Br)cc2)s1 [Example 152, 5-([5-[(4-bromophenyl)methoxy]-1,3,4-thiadiazol-2-yl]carbamoyl)-4-(2-methoxyphenyl)pyridine-2-carboxylic acid] |
| 1000 to 10000 | COc1cc(COc2nnc(NC(=O)c3cccnc3N3CCOCC3)s2)ccc1Cl [Example 34, N-(5-((4-chloro-3-methoxybenzyl)oxy)-1,3,4-thiadiazol-2-yl)-2-morpholinonicotinamide] |
| ≤ 200 | COc1ccc(C#N)cc1-c1cc(C)ncc1C(=O)Nc1nnc(OCc2ccc(Cl)cn2)s1 [Example 117, N-[5-[(5-chloropyridin-2-yl)methoxy]-1,3,4-thiadiazol-2-yl]-4-(5-cyano-2-methoxyphenyl)-6-methylpyridine-3-carboxamide] |
| ≤ 200 | N#Cc1ccccc1-c1cnccc1C(=O)Nc1nnc(OCc2ccc(Cl)cc2)s1 [Example 126, N-(5-((4-chlorobenzyl)oxy)-1,3,4-thiadiazol-2-yl)-3-(2-cyanophenyl)isonicotinamide] |
| ≤ 200 | N#Cc1ccc(C(=O)Nc2nnc(OCc3ccc(Cl)cc3)s2)c(N2CCNC(=O)C2)n1 [Example 76, N-(5-((4-chlorobenzyl)oxy)-1,3,4-thiadiazol-2-yl)-6-cyano-2-(3-oxopiperazin-1-yl)nicotinamide] |
| 200 to 500 | COc1ccccc1-c1cc(C)ncc1C(=O)Nc1nnc(OCc2cc(F)ccn2)s1 [Example 199, N-(5-((4-fluoropyridin-2-yl)methoxy)-1,3,4-thiadiazol-2-yl)-4-(2-methoxyphenyl)-6-methylnicotinamide] |
| 1000 to 10000 | O=C(Nc1nnc(OCc2ccc(Cl)cn2)s1)c1cccnc1N1CCS(=O)(=O)CC1 [Example 37, N-(5-((5-chloropyridin-2-yl)methoxy)-1,3,4-thiadiazol-2-yl)-2-(1,1-dioxidothiomorpholino)nicotinamide] |
